Measured values taken from patent publication US12564634B2, “Highly dispersible zinc phthalocyanine-silica nanotubes and preparation method therefor” (priority 2019, dated 2026).

Test: Dispersion stability analysis with LUMiSizer (transmittance profile under centrifugation)
Assay type: physicochemical
Conditions: aqueous dispersion, 10 min ultrasonication, 5 s intervals, total 55 s, steeper slope = lower dispersion stability, Test Group I value matches the sample stored one day after dispersing
Method: In this experimental example, the dispersion stability of highly dispersible zinc phthalocyanine-silica nanotubes was tested. The dispersion stability analysis was performed with the use of LUMiSizer™.
In this regard, the dispersion stability refers to the stability of a dispersed material, and the longer the dispersion state is maintained after being dispersed, the higher the dispersion stability. As a measurement method, there is a method of directly observing the change in dispersion stability of the sample. In this regard, to shorten the observation time, there is a method of letting the sample to experience harsh conditions such as centrifugal force or heating so that the change in dispersion stability of the sample can be checked in a quick time (refer to “Procedures to accelerate the evaluation of long-term stability”, ISO/TR 13097). For example, the sample may undergo centrifugation so that relatively quick sedimentation of particles can occur compared to gravity sedimentation. In this case, layer separation occurs. […] A detector detects the IR rays having transmitted through the sample, and the detected rays are represented in real time as a transmittance profile. It is a method of performing comparative analysis of dispersion stability between samples by quantifying the generation rate, pattern, etc. of such a profile. […]

increase slope of the average value of the transmittance profile (rate in %/s): 17.70 %/s
Compound: [Zn+2].c1ccc2c(c1)-c1nc-2nc2[n-]c(nc3nc([n-]c4nc(n1)-c1ccccc1-4)-c1ccccc1-3)c1ccccc21 [Control Group, zinc phthalocyanine]
